Assay results as given in PubChem BioAssay (NCI).
Several values for one entry are separate records, joined by “and”; a condition that tells them apart may be missing. Equal values may be shown once.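 Cells were grown in 96-well plates and exposed to each compound for 48 hours at five concentrations; endpoints were interpolated linearly between bracketing concentrations, or set to the highest concentration if not reached. GI50 is the concentration that inhibits growth by half. TGI: concentration producing complete growth inhibition.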

Columns and labels:
Assay in all cases: NCI anticancer screen, dose series, 48 h
MDA-N = tested on: MDA-N
T-47D breast = tested on: T-47D breast
HS 578T breast = tested on: HS 578T breast
MDA-MB-231 breast = tested on: MDA-MB-231 breast
MDA-MB-435 = tested on: MDA-MB-435
DU-145 prostate = tested on: DU-145 prostate
BT-549 breast = tested on: BT-549 breast
M19-MEL melanoma = tested on: M19-MEL melanoma
SNB-78 CNS = tested on: SNB-78 CNS
DLD-1 colon = tested on: DLD-1 colon
DMS 273 small cell lung = tested on: DMS 273 small cell lung
DMS 114 small cell lung = tested on: DMS 114 small cell lung
KM20L2 colon = tested on: KM20L2 colon

`c1csc(C(NC2=NCCO2)C2CC2)c1` (stereo not given) was tested, and the TGI (MDA-N) was over 100 µM, the TGI (T-47D breast) was over 100 µM and the TGI (HS 578T breast) was over 100 µM. The TGI (MDA-MB-231 breast) was over 100 µM.

`O=C([O-])C1([n+]2c(-c3ccccc3)cc(-c3ccccc3)cc2-c2ccccc2)CC1` gave a TGI (MDA-N) of over 100 µM, a TGI (MDA-MB-435) of 50.7 µM and a TGI (DU-145 prostate) of over 100 µM. It also gave a TGI (T-47D breast) of 45.2 µM and a TGI (HS 578T breast) of over 100 µM.

`CC(N)=O.[Cl][Pt][Cl].[NH-]c1ccn(C2OC(CO)C(O)C2O)c(=O)n1` (stereo not given) showed a TGI (MDA-MB-435) of over 100 µM, a TGI (DU-145 prostate) of over 100 µM and a TGI (T-47D breast) of over 100 µM. The TGI (BT-549 breast) was over 100 µM, the TGI (HS 578T breast) was over 100 µM and the TGI (MDA-MB-231 breast) was over 100 µM.

`O=S(=O)(c1ccc2ccccc2c1)N1CCN(S(=O)(=O)c2ccc3ccccc3c2)CC1` showed a TGI (MDA-N) of over 100 µM, a TGI (MDA-MB-435) of over 100 µM and a TGI (DU-145 prostate) of over 100 µM. For the same compound, the TGI (T-47D breast) was over 100 µM, the TGI (BT-549 breast) was over 100 µM and the TGI (HS 578T breast) was over 100 µM. The TGI (MDA-MB-231 breast) was over 100 µM.

Compound `Clc1cccc(C2SCc3nc4ccccc4n32)c1` (stereo not given) has a TGI (M19-MEL melanoma) of 58.4 µM, a TGI (SNB-78 CNS) of 87.5 µM and a TGI (DLD-1 colon) of 34.1 µM.

In the case of `CO/C(=N\N=C(/c1ccccc1)C(F)(F)F)c1ccncc1`, the TGI (MDA-MB-435) is reported as over 100 µM, the TGI (DU-145 prostate) is reported as over 100 µM and the TGI (T-47D breast) is reported as over 100 µM. It also gave a TGI (BT-549 breast) of over 100 µM, a TGI (HS 578T breast) of over 100 µM and a TGI (MDA-MB-231 breast) of over 100 µM.

`Clc1ccc(-c2nnc(-c3nsc4ccccc34)o2)cc1` showed a TGI (M19-MEL melanoma) of over 100 µM, a TGI (DMS 273 small cell lung) of over 100 µM and a TGI (SNB-78 CNS) of over 100 µM. The TGI (DMS 114 small cell lung) was over 100 µM and the TGI (KM20L2 colon) was over 100 µM.

`N/C(=N\N=C/c1cc([N+](=O)[O-])cc([N+](=O)[O-])c1O)NO` was tested, and the TGI (M19-MEL melanoma) was over 100 µM, the TGI (DMS 273 small cell lung) was over 43.3 µM and the TGI (SNB-78 CNS) was over 100 µM. The TGI (DLD-1 colon) was over 100 µM, the TGI (DMS 114 small cell lung) was over 100 µM and the TGI (KM20L2 colon) was over 100 µM.

In the case of `CC(=O)Nc1cc(/C=C\C(=O)N2CC(CCl)c3c2cc(N)c2ccccc32)n(C)n1` (stereo not given), the GI50 (MDA-N) is reported as 0.0136 µM, the TGI (MDA-N) is reported as 0.0411 µM and 0.0435 µM and the GI50 (MDA-MB-435) is reported as 0.0131 µM. The TGI (MDA-MB-435) was 0.0399 µM and 0.0497 µM, the TGI (DU-145 prostate) was over 100 µM and the GI50 (BT-549 breast) was 0.0225 µM.

For `Cc1cc(C)c(S(=O)(=O)N(CCCN)OCCCN)c(C)c1`, the TGI (MDA-N) was over 100 µM, the TGI (MDA-MB-435) was over 100 µM and the TGI (DU-145 prostate) was over 100 µM. It also gave a TGI (T-47D breast) of over 100 µM, a TGI (BT-549 breast) of over 100 µM and a TGI (HS 578T breast) of over 100 µM. The TGI (MDA-MB-231 breast) was over 100 µM.

`Fc1ccc(C(OCCN2CC3CC2CN3)c2ccc(F)cc2)cc1` (stereo not given) gave a TGI (MDA-MB-435) of 53.8 µM, a TGI (DU-145 prostate) of over 100 µM and a TGI (T-47D breast) of over 100 µM. It also gave a TGI (BT-549 breast) of over 100 µM, a TGI (HS 578T breast) of over 100 µM and a TGI (MDA-MB-231 breast) of over 100 µM.

`CCN1C(=O)N2C(OC)c3ccccc3C(Br)C2(OC)C1=O` (stereo not given) showed a TGI (M19-MEL melanoma) of over 100 µM, a TGI (DMS 273 small cell lung) of over 100 µM and a TGI (DLD-1 colon) of over 100 µM. For the same compound, the TGI (DMS 114 small cell lung) was over 100 µM and the TGI (KM20L2 colon) was over 100 µM.

`N=C(N)c1ccc(N=Nc2c(O)ccc3cc(O)ccc23)cc1` gave a TGI (MDA-MB-435) of over 100 µM, a TGI (BT-549 breast) of over 100 µM and a TGI (HS 578T breast) of over 100 µM. For the same compound, the TGI (MDA-MB-231 breast) was over 100 µM.

With `O=C(/C=C\c1ccc(/C=C/C(=O)Nc2cccc(C3=NCCCN3)c2)cc1)Nc1cccc(C2=NCCCN2)c1` the TGI (M19-MEL melanoma) was over 100 µM, the TGI (DMS 273 small cell lung) was over 100 µM and the TGI (SNB-78 CNS) was over 100 µM. It also gave a TGI (DLD-1 colon) of over 100 µM and a TGI (KM20L2 colon) of over 100 µM.

Work on `CC1=NN(C(=O)c2ccc(C)cc2)C(=O)C1N=Nc1ccccc1C(=O)O` (stereo not given) yielded a TGI (M19-MEL melanoma) of over 100 µM, a TGI (DMS 273 small cell lung) of over 100 µM and a TGI (SNB-78 CNS) of over 100 µM. For the same compound, the TGI (DLD-1 colon) was over 100 µM, the TGI (DMS 114 small cell lung) was over 100 µM and the TGI (KM20L2 colon) was over 100 µM.

`CC1CCN(c2cc(-c3cc4ccccc4o3)oc(=O)c2C#N)CC1` showed a TGI (DMS 273 small cell lung) of over 100 µM, a TGI (DLD-1 colon) of over 100 µM and a TGI (DMS 114 small cell lung) of over 100 µM. It also gave a TGI (KM20L2 colon) of over 100 µM.

`CCOC(=O)[C@H]1Nc2c(cccc2[N+](=O)[O-])C2c3ccccc3CC21` (stereo not given in full) showed a TGI (M19-MEL melanoma) of over 100 µM, a TGI (DMS 273 small cell lung) of over 100 µM and a TGI (SNB-78 CNS) of over 100 µM. For the same compound, the TGI (DLD-1 colon) was over 100 µM, the TGI (DMS 114 small cell lung) was over 100 µM and the TGI (KM20L2 colon) was over 100 µM.

`Cc1ccc2oc3c(ccc(=O)n3C)c(=O)c2c1` gave a TGI (MDA-N) of over 100 µM, a TGI (MDA-MB-435) of over 100 µM and a TGI (DU-145 prostate) of over 100 µM. The TGI (T-47D breast) was over 100 µM, the TGI (HS 578T breast) was over 100 µM and the TGI (MDA-MB-231 breast) was over 100 µM.

`O=c1[nH]c(=S)[nH]c2c(C3OC(CO)C(O)C3O)nsc12` (stereo not given) showed a TGI (MDA-N) of over 100 µM, a TGI (MDA-MB-435) of over 100 µM and a TGI (DU-145 prostate) of over 100 µM. The TGI (T-47D breast) was over 100 µM, the TGI (BT-549 breast) was over 100 µM and the TGI (HS 578T breast) was over 100 µM.

With `CCOc1cc(/C=C/C(=O)CC(=O)/C=C/c2ccc(OC(=O)CNCCN(CC)CC)c(OCC)c2)ccc1OC(=O)CNCCN(CC)CC` the GI50 (MDA-MB-435) was 1.56 µM, the TGI (MDA-MB-435) was 6.31 µM and the GI50 (DU-145 prostate) was 1.61 µM. For the same compound, the TGI (DU-145 prostate) was 3.56 µM, the GI50 (T-47D breast) was 6.41 µM and the TGI (T-47D breast) was 45.4 µM. The GI50 (BT-549 breast) was 1.45 µM, the TGI (BT-549 breast) was 3.52 µM and the GI50 (HS 578T breast) was 2.19 µM. The TGI (HS 578T breast) was 6.43 µM, the GI50 (MDA-MB-231 breast) was 2.08 µM and the TGI (MDA-MB-231 breast) was 6.08 µM.
